Data from US10300026B2, “Use of dihydroxyacetone in preparation of anti-cancer medicaments” (priority 2015, dated 2019).
Like-named read-outs stand apart in the source and are kept apart here.

Assays:
HCC1937 = test: CellTiter-Glo cell viability, HCC1937 (human breast cancer cell); format: cell-based
Experimental: (§1) 15 g of the commercially available 1,3-dihydroxyacetone in the solid powder form was added into 100 mL of 5% glucose (infusion bottle), then filled into 100 bottles.
(§2) After digesting the cells and counting (counting suspended cells directly), the cells were diluted to 1.25×10^5 cells/ml, inoculated into a 384-well plate (5000 cells/well) with 40 μl per well, centrifuged at 1500 rpm for 1 min, placed into the incubator and incubated overnight.
(§3) The medicaments were diluted in gradient with a 5% glucose solution to 5×, respectively. Each well was dosed with 10 μl medicament, with 4 wells (n=4) for each concentration. The cell viability was measured with Luminescence Cell Viability Assay kit after incubating for 72 hours in an incubator.
(§4) CellTiter-Glo reagent was added into each well, the volume of which is the same as that of medium. It was shaked on a shaker for 5 min, centrifuged at 1500 rpm for 1 min, and incubated in the dark at room temperature for 15 min. Then the chemiluminescence was detected with BMG PHERAstar.
(§5) The cell viability was calculated by using the following formula: Cell viability (Viability %)=100%×(LUMsample to be measured−LUMblank)/(LUMsolvent control−LUMblank)
(§6) The curve of Log[concentration] versus cell viability was fitted using Prism 6 to calculate IC50 of sample for each cell line.

U87MG = test: CellTiter-Glo cell viability, U87MG (human spongioblastoma cell line); format: cell-based
Experimental: as §1, §2, §3, §4, §5, §6

RPMI8226 = test: CellTiter-Glo cell viability, RPMI8226 (multiple myeloma); format: cell-based
Experimental: as §1, §2, §3, §4, §5, §6

HCT116 = test: CellTiter-Glo cell viability, HCT116 (human colon cancer cell); format: cell-based
Experimental: as §1, §2, §3, §4, §5, §6

C-33A = test: CellTiter-Glo cell viability, C-33A (human cervical cancer cell); format: cell-based
Experimental: as §1, §2, §3, §4, §5, §6

HL-60 = test: CellTiter-Glo cell viability, HL-60 (human leukemic cell line); format: cell-based
Experimental: as §1, §2, §3, §4, §5, §6

SGC7901 = test: CellTiter-Glo cell viability, SGC7901 (human gastric adenocarcinoma cell); format: cell-based
Experimental: as §1, §2, §3, §4, §5, §6

WIL2-S = test: CellTiter-Glo cell viability, WIL2-S (human B lymphocyte); format: cell-based
Experimental: as §1, §2, §3, §4, §5, §6

HepG2 = test: CellTiter-Glo cell viability, HepG2 (human hepatoma cell line); format: cell-based
Experimental: as §1, §2, §3, §4, §5, §6

PANC-1 = test: CellTiter-Glo cell viability, PANC-1 (human pancreatic cancer cell line); format: cell-based
Experimental: as §1, §2, §3, §4, §5, §6

S180 = test: CellTiter-Glo cell viability, S180 (S180 sarcoma cells); format: cell-based
Experimental: as §1, §2, §3, §4, §5, §6

MDA-MB-231 = test: CellTiter-Glo cell viability, MDA-MB-231 (human breast cancer cell); details: 72 hours, n=4, read-out: IC50 calculated based on the concentration of dihydroxyacetone
Experimental: as §1, §2, §3, §4, §5, §6

[1] = at pH 6.0; cited from earlier work

**Q.** Which results are given for `N.N.[Cl][Pt][Cl]` [DDP, cis-diammine platinum dichloride, reference compound]?
**A.** IC50 (HCC1937; HCC1937, 72 hours, n=4, read-out: IC50): 14.8 µM; IC50 (U87MG; U87MG, 72 hours, n=4, read-out: IC50): 24 µM; IC50 (RPMI8226; RPMI8226, 72 hours, n=4, read-out: IC50): 5.79 µM; IC50 (HCT116; HCT116, 72 hours, n=4, read-out: IC50): 22.9 µM; IC50 (C-33A; C-33A, 72 hours, n=4, read-out: IC50): 2.85 µM; IC50 (HL-60; HL-60, 72 hours, n=4, read-out: IC50): 1.82 µM; IC50 (SGC7901; SGC7901, 72 hours, n=4, read-out: IC50): 24 µM; IC50 (WIL2-S; WIL2-S, 72 hours, n=4, read-out: IC50): 9.89 µM; IC50 (HepG2; HepG2, 72 hours, n=4, read-out: IC50): 13.9 µM; IC50 (PANC-1; PANC-1, 72 hours, n=4, read-out: IC50): 22.4 µM; IC50 (S180; S180, 72 hours, n=4, read-out: IC50): 0.26 µM

**Q.** For `O=C(CO)CO` [Dihydroxyacetone, 1,3-dihydroxyacetone], which IC50 (HCC1937; Homo sapiens, HCC1937, 72 h, read-out: IC50 calculated based on the concentration of dihydroxyacetone) is on record?
**A.** Its IC50 is 10200 µM.

**Q.** And the IC50 (U87MG; Homo sapiens, U-87 MG, 72 h, read-out: IC50 calculated based on the concentration of dihydroxyacetone)?
**A.** The IC50 was 9210 µM.

**Q.** What about the IC50 (RPMI8226; Homo sapiens, RPMI-8226, 72 h, read-out: IC50 calculated based on the concentration of dihydroxyacetone) of the same compound?
**A.** The IC50 was 1810 µM.

**Q.** What about the IC50 (HCT116; Homo sapiens, HCT-116, 72 h, read-out: IC50 calculated based on the concentration of dihydroxyacetone) of the same compound?
**A.** The IC50 was 6820 µM.

**Q.** What about the IC50 (MDA-MB-231) of the same compound?
**A.** The IC50 was 7950 µM.

**Q.** What about the IC50 (C-33A; Homo sapiens, C-33-A, 72 h, read-out: IC50 calculated based on the concentration of dihydroxyacetone) of the same compound?
**A.** Its IC50 is 5090 µM.

**Q.** What about the IC50 (HL-60; Homo sapiens, HL-60, 72 h, read-out: IC50 calculated based on the concentration of dihydroxyacetone) of the same compound?
**A.** Its IC50 is 2780 µM.

**Q.** And the IC50 (SGC7901; Homo sapiens, SGC-7901, 72 h, read-out: IC50 calculated based on the concentration of dihydroxyacetone)?
**A.** The IC50 was 3740 µM.

**Q.** And the Stability [1]?
**A.** Its Stability is “stable”.

**Q.** And the IC50 (WIL2-S; Homo sapiens, Lymphocyte, 72 h, read-out: IC50 calculated based on the concentration of dihydroxyacetone)?
**A.** The IC50 was 12100 µM.

**Q.** And the IC50 (HepG2; Homo sapiens, HepG2, 72 h, read-out: IC50 calculated based on the concentration of dihydroxyacetone)?
**A.** The IC50 was 12100 µM.

**Q.** And the IC50 (PANC-1; Homo sapiens, PANC-1, 72 h, read-out: IC50 calculated based on the concentration of dihydroxyacetone)?
**A.** The IC50 was 7360 µM.

**Q.** And the IC50 (S180; S-180, 72 h, read-out: IC50 calculated based on the concentration of dihydroxyacetone)?
**A.** Its IC50 is 950 µM.
